Assay results reported in patent US10245261B2, “Substituted indol-5-ol derivatives and their therapeutic applications” (NantBioScience, Inc., priority 2013, dated 2019).
Like-named read-outs stand apart in the source and are kept apart here.

How the values were obtained:
KDR(h) = KDR(h) (Homo sapiens, UniProt P35968); assay: KinaseProfiler kinase assay; format: biochemical
K562 = assay: CellTiterBlue cell growth inhibition; format: cell-based; settings: Homo sapiens; K562, 72 hours
Protocol: (§1) This example illustrated the proliferating cell growth inhibition of selected compounds from this invention. To do this, the cells were seeded into fresh Iscove's growth medium at a density of 0.4e6 cells/ml and grown in log phase for 24 hr. Cells were then resuspended in their fresh respective growth media at 0.1e^6 cells/ml and plated into 384 well black, clear-bottom microplates at 36 ul/well. Test compounds and controls were initially dissolved in DMSO at the desired concentration, then serially diluted to the assay buffer. These solutions were added and cells were incubated for 72 hours at 37° C. CellTiterBlue (Promega cat# G7572) was added on the Beckman FX. Plates were returned to the 37° C. CO2 incubator for 4 hr and then fluorescence was determined on the Victor plate reader. Data were processed using Microsoft Excel, and GI50 values were generated using Prism (GraphPad Software, San Diego, Calif.).

MV4.11 = assay: CellTiterBlue cell growth inhibition; format: cell-based; settings: Homo sapiens; MV4.11, 72 hours
Protocol: as §1

Abl(h) = Abl(h) (Homo sapiens, UniProt P00519); assay: KinaseProfiler kinase assay; format: biochemical
Sequence of Abl(h) (P00519 whole entry): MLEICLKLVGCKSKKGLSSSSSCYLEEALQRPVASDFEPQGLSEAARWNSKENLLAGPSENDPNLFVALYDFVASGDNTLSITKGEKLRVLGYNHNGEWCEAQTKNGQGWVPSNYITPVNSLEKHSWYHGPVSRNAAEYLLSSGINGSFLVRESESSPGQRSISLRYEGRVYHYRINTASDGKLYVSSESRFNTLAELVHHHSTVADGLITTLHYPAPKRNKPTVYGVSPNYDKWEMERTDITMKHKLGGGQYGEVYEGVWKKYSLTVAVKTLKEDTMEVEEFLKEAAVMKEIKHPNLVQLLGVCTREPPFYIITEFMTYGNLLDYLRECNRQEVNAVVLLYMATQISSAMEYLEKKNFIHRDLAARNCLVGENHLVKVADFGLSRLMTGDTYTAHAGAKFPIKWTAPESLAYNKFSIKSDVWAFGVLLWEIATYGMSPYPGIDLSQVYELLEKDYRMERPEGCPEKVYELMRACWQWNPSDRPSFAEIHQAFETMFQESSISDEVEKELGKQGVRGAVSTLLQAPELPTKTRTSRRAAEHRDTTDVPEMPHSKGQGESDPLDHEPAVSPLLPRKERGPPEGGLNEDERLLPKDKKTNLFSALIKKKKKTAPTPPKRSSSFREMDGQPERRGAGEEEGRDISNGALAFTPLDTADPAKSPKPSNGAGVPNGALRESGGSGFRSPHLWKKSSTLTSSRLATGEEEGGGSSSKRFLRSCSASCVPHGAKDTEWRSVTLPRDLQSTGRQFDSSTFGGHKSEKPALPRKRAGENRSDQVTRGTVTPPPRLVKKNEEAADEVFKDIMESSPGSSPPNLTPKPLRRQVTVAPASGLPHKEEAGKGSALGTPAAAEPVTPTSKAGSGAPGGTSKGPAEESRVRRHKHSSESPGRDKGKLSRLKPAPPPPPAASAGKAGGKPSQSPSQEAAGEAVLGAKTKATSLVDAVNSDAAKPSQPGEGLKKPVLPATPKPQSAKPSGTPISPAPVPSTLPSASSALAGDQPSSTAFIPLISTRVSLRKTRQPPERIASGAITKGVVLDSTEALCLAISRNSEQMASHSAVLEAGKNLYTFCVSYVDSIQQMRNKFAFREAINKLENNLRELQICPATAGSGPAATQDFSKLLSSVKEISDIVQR

FGFR1(h) = FGFR1(h) (Homo sapiens, UniProt P11362); assay: KinaseProfiler kinase assay; format: biochemical
Sequence of FGFR1(h) (P11362 22-822): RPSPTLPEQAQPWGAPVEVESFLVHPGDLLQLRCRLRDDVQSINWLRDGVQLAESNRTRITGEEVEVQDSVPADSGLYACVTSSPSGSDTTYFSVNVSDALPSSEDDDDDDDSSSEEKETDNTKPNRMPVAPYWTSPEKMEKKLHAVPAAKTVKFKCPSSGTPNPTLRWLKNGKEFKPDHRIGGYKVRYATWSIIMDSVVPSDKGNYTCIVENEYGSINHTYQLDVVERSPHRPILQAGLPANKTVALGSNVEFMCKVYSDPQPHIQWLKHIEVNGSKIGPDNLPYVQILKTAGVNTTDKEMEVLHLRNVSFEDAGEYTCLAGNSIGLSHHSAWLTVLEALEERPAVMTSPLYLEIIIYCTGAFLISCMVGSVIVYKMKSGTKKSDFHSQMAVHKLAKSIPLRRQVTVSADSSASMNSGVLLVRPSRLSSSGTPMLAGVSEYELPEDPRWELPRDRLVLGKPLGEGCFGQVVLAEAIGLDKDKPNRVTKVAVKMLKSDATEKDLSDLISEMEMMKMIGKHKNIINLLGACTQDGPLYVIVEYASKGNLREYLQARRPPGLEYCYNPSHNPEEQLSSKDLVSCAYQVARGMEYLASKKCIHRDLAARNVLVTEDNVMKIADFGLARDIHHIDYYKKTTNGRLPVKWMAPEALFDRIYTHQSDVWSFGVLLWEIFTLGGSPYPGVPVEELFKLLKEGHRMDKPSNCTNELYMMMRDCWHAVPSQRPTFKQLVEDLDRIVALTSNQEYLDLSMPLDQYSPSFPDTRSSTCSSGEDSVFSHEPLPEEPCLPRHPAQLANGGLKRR
Summary of the method: (§2)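 Kinase activity is followed by incorporation of 33P from [γ-33P]ATP in 8 mM MOPS pH 7.0 with 10 mM Mg acetate and 0.2 mM EDTA over 40 min at room temperature. Inhibition is scaled between no-kinase and phosphopeptide control wells.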

Ret(h) = Ret(h) (Homo sapiens, UniProt P07949); assay: KinaseProfiler kinase assay; format: biochemical
Sequence of Ret(h) (P07949 29-1114): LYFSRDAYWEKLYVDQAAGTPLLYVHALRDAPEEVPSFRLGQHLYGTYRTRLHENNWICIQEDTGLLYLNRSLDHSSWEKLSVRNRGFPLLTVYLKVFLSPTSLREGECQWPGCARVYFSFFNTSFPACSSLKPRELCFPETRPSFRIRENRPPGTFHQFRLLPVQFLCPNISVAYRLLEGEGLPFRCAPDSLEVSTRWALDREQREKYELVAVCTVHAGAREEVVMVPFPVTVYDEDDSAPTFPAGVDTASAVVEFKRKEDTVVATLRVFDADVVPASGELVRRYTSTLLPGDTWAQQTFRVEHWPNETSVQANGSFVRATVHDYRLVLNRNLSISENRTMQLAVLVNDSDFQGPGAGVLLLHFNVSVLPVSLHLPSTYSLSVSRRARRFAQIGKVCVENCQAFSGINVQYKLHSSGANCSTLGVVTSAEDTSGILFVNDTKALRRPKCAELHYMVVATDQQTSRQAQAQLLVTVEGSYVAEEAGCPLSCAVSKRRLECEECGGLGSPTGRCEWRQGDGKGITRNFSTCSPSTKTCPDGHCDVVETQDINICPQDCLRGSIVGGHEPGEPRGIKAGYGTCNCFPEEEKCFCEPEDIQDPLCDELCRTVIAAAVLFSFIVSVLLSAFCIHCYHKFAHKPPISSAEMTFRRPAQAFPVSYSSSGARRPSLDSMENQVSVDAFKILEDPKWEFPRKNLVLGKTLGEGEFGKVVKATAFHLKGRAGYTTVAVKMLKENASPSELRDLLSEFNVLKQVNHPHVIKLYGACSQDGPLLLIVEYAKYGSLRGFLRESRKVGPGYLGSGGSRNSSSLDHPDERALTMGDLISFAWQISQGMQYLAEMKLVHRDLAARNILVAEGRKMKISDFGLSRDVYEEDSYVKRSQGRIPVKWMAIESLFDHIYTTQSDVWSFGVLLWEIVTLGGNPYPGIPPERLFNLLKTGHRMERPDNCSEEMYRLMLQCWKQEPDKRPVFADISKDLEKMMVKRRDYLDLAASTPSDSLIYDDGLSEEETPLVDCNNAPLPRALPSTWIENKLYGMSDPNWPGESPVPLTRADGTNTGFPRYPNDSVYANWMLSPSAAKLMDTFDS
Summary of the method: as §2

cSRC(h) = cSRC(h) (Homo sapiens, UniProt P12931); assay: KinaseProfiler kinase assay; format: biochemical
Sequence of cSRC(h) (P12931 whole entry): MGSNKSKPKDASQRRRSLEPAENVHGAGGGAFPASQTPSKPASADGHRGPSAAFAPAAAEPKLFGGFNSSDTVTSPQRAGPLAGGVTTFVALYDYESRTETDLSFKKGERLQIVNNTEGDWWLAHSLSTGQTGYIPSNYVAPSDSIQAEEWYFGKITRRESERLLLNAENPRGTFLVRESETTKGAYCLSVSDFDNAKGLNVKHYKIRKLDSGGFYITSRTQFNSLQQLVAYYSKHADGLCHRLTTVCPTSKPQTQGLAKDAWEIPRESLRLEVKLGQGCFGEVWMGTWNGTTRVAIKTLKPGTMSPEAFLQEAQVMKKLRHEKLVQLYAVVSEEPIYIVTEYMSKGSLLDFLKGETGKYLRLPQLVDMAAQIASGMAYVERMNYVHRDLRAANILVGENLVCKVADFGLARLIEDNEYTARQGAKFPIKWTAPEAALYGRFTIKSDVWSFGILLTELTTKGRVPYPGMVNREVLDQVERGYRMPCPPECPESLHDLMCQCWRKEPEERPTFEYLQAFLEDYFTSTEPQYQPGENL
Summary of the method: as §2

[1] = system: human MIAPaCa-2 pancreatic carcinoma xenograft; assay: Pancreatic carcinoma xenograft in athymic nude mice; format: in vivo, mouse; settings: MIAPaCa-2 xenograft; for anti-tumor effect: nude mice, single agent
Protocol: The objective of the third study was to evaluate antitumor activities of novel multiple-kinase inhibitor NTW-3475 in human MIAPaCa-2 pancreatic carcinoma xenograft in athymic nude-Faxn1 mice.
Four animals were randomly assigned to study groups. Each animal was weighed, and then injected subcutaneously in the left and right flank area with 0.1 ml of 5.0×10^7 MIAPaCa-2 cells per mL.
Each test or control animal was on a 5-day on, two-day off for two cycles treatment schedule with negative control vehicle, positive control Abraxane at 20 mg/kg or 25, 50 mg/kg of NTW-3475. Tumor growth was measured with a digital hand held caliper twice weekly (once tumor emerges) prior to the first dosing and then two to three times weekly until euthanized.
The objective of the third study was to evaluate antitumor activities of novel multiple-kinase inhibitor Compound 10, 11, 12, 53, 68, 82, 83, 88, and 90 in human MIAPaCa-2 pancreatic carcinoma xenograft in athymic nude-Faxn1 mice.
Each test or control animal was on a 5-day on, two-day off for three cycles treatment schedule with negative control vehicle or 40 mg/kg of Compound 10, 11, 12, 53, 68, 82, 83, 88 and 90. Tumor growth was measured with a digital hand held caliper twice weekly (once tumor emerges) prior to the first dosing and then two to three times weekly until euthanized.

Sequence of KDR(h) (P35968 20-1356): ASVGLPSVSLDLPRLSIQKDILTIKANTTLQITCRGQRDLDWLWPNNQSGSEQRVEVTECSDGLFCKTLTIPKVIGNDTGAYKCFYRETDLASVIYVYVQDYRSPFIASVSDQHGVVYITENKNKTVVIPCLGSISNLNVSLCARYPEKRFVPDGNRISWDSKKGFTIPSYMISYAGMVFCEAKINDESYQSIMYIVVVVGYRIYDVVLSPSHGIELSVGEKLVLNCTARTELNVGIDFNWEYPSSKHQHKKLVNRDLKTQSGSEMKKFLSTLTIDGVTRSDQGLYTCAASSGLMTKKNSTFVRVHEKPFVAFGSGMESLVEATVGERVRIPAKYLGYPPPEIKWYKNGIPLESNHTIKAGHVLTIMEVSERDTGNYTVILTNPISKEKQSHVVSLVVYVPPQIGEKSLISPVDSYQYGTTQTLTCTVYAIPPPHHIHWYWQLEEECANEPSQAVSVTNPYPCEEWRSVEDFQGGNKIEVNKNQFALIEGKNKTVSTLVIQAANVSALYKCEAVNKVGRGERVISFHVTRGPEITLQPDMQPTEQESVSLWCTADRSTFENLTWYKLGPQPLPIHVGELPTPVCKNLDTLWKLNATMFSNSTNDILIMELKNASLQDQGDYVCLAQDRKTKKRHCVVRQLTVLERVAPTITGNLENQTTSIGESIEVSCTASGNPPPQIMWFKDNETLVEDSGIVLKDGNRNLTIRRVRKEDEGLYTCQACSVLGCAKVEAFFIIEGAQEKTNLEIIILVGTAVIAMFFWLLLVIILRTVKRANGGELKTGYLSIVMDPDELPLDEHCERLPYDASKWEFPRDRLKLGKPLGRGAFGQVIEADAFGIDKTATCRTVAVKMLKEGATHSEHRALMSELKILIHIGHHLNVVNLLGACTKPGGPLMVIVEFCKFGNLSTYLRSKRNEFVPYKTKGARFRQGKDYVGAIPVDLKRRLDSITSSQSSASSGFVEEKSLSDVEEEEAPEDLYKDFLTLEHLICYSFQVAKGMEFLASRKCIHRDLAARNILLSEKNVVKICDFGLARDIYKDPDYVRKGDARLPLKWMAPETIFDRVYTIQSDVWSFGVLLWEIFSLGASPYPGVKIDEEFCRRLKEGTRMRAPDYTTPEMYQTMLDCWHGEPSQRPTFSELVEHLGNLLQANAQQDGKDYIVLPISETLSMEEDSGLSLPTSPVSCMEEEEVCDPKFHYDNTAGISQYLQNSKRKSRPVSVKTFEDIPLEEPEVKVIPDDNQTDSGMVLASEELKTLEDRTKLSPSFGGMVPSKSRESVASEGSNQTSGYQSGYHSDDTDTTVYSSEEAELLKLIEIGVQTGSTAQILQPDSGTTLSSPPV

Compound | inhibition at 1 µM (KDR(h)) [%] | GI50 (K562) [nM] | GI50 (MV4.11) [nM] | inhibition at 1 µM (Abl(h)) [%] | inhibition at 1 µM (Ret(h)) [%] | inhibition at 1 µM (cSRC(h)) [%] | anti-tumor effect [1] | IC50 (Abl(h); read-out: IC50 (nM) Abl (h)) [nM] | IC50 (FGFR1(h); read-out: IC50 (nM) FGFR1 (h)) [nM] | IC50 (cSRC(h); read-out: IC50 (nM) cSrc (h)) [nM] | IC50 (KDR(h); read-out: IC50 (nM) KDR (h)) [nM] | anti-tumor effect in combination with Abraxane [1] | further results
C/C=C/c1cc(Nc2cc(N3CCN(C)CC3)nc(Oc3ccc4[nH]c(C)cc4c3F)n2)n[nH]1 [Compound 53] | 95 | 0.69 | 0.15 | 109 | 98 | 98 |  |  |  |  |  |  | IC50 (KDR(h); VEGFR2, read-out: IC50): 16 nM; IC50 (Abl(h); Abl, read-out: IC50): 0.6 nM; IC50 (FGFR1(h); FGFR1, read-out: IC50): 0.5 nM; IC50 (Ret(h); Ret, read-out: IC50): 2 nM; IC50 (cSRC(h); cSrc, read-out: IC50): 2 nM
Cc1cc2c(F)c(Oc3nc(Nc4cc(C5CC5)[nH]n4)cc(N4CCN(C)CC4)n3)ccc2[nH]1 [Compound 10] | 95 | 0.19 | 0.19 | 112 | 101 | 100 | strong anti-tumor effect | 0.5 | 1 | 3 |  |  | inhibition at 0.1 µM (KDR(h)): 93%; inhibition at 0.1 µM (Abl(h)): 110%; inhibition at 0.1 µM (FGFR1(h)): 100%; inhibition at 0.1 µM (Ret(h)): 102%; inhibition at 0.1 µM (cSRC(h)): 103%
Cc1cc2c(F)c(Oc3nc(Nc4cc(C5CC5)[nH]n4)cc(N4CCNCC4)n3)ccc2[nH]1 [Compound 11, N-(5-cyclopropyl-1H-pyrazol-3-yl)-2-((4-fluoro-2-methyl-1H-indol-5-yl)oxy)-6-(piperazin-1-yl)pyrimidin-4-amine] | 96 | 0.41 | 0.29 | 111 | 101 | 101 | strong anti-tumor effect | 0.5 | 0.5 | 3 | 12 |  | inhibition at 0.1 µM (KDR(h)): 92%; inhibition at 0.1 µM (Abl(h)): 108%; inhibition at 0.1 µM (FGFR1(h)): 100%; inhibition at 0.1 µM (Ret(h)): 100%; inhibition at 0.1 µM (cSRC(h)): 98%
C/C=C/c1cc(Nc2cc(N3CCN(CCO)CC3)nc(Oc3cc(F)c4[nH]c(C)cc4c3F)n2)n[nH]1 [Compound 88] | 96 | 0.6 | 0.16 | 113 | 99 | 100 | strong anti-tumor effect | 1 | 0.2 | 4 | 44 |  | 
Cc1cc2c(F)c(Oc3nc(Nc4cc(C5CC5)[nH]n4)cc(N4CCNCC4)n3)cc(F)c2[nH]1 [Compound 82] | 95 | 0.31 | 0.28 | 106 | 100 | 100 | strong anti-tumor effect | 0.2 | 0.6 | 2 | 11 | significant antitumor efficacy | IC50 (Ret(h); read-out: IC50 (nM) Ret (h)): 1 nM
C/C=C/c1cc(Nc2cc(N3CCNCC3)nc(Oc3ccc4[nH]c(C)cc4c3F)n2)n[nH]1 [Compound 68] | 92 | 0.26 | 0.16 | 107 | 99 | 96 | strong anti-tumor effect | 0.3 | 0.6 | 2 | 12 | significant antitumor efficacy | 
C/C=C/c1cc(Nc2cc(N3CCN(C)CC3)nc(Oc3cc(F)c4[nH]c(C)cc4c3F)n2)n[nH]1 [NTW-3456] |  |  |  |  |  |  | some anti-tumor activity |  |  |  |  | significant anti-tumor activity | 
